# According to patent US20150047066A1, “PLANT HAVING INCREASED RESISTANCE OR SUSCEPTIBILITY TO 4-HPPD INHIBITOR” (TOYAMA PREFECTURE, priority 2010, published 2015):
# Assays:
# [1] = system: A. thaliana (ecotype Columbia); experiment: BBC whitening of wildtype A. thaliana on agar medium; assay type: in vivo, Arabidopsis thaliana; settings: agar medium containing 0.03 μM BBC
# Method: Whether or not a protein encoded by a particular gene has an activity of providing a plant with resistance to a 4-HPPD inhibitor can be determined, for example, by introducing the gene into a plant, and assaying whether or not the plant thus produced is provided with the resistance as described in Examples later (see Example 2). Specifically, in a case of using A. thaliana (ecotype Columbia) that would be whitened by an agar medium containing 0.03 μM BBC, if a transformant produced by introducing the gene into A. thaliana can grow without being whitened in the presence of BBC at the above concentration, the protein encoded by the gene can be determined to have an activity of providing a plant with resistance to a 4-HPPD inhibitor. Moreover, in a case of using a BBC susceptible rice cultivar “Kanto 239” that would be whitened by an agar medium containing 0.1 μM BBC, if a transformant produced by introducing the gene into Kanto 239 can grow without being whitened in the presence of BBC at the above concentration, the protein encoded by the gene can be determined to have an activity of providing a plant with resistance to a 4-HPPD inhibitor.
# [2] = system: A. thaliana recombinants having the target gene introduced therein; experiment: BBC resistance assay on A. thaliana recombinants (T2) having the target gene (AK065581, HIS1) introduced; assay type: in vivo, Arabidopsis thaliana; settings: HIS1 recombinants T2 generation, agar medium containing 0.03 μM BBC
# Method: For transformation of A. thaliana, ecotype “Columbia” was used, and a Floral dip method was performed (see Weigel and Glazebrook, Arabidopsis, a laboratory manual, Cold Spring Harbor Laboratory Press (2002) p131-132). Specifically, first, Agrobacterium was shake-cultured in a liquid medium (LB or YEB) containing an antibiotic. Approximately 16 hours later, 2 ml of the culture solution was added to a liquid medium (LB or YEB) containing an antibiotic, and further shake-cultured. Then, the culture solution obtained approximately 16 hours thereafter was centrifuged at 8000 rpm at 4° C. for 10 minutes. The supernatant liquid was discarded, and the resulting precipitate was suspended in 500 ml of a solution containing 5% sucrose. Subsequently, immediately before the transformation, a transformation reagent silwet (registered trademark: SILWET L-77, product number: BMS-SL7755, manufactured by Bio Medical Science Inc.) was added thereto at a final concentration of 0.025%. Then, into the Agrobacterium suspension thus obtained, Arabidopsis from which already flowered and pollinated buds had been removed was dipped for 30 to 120 seconds. Thereafter, the plants were left standing for 16 hours and then grown to obtain the seeds. […]
# [3] = system: BBC susceptible rice cultivar Kanto 239; experiment: BBC whitening of wildtype susceptible rice on agar medium; assay type: in vivo; settings: Kanto 239 wildtype, agar medium containing 0.1 μM BBC
# Method: Whether or not a protein encoded by a particular gene has an activity of providing a plant with resistance to a 4-HPPD inhibitor can be determined, for example, by introducing the gene into a plant, and assaying whether or not the plant thus produced is provided with the resistance as described in Examples later (see Example 2). Specifically, in a case of using A. thaliana (ecotype Columbia) that would be whitened by an agar medium containing 0.03 μM BBC, if a transformant produced by introducing the gene into A. thaliana can grow without being whitened in the presence of BBC at the above concentration, the protein encoded by the gene can be determined to have an activity of providing a plant with resistance to a 4-HPPD inhibitor. Moreover, in a case of using a BBC susceptible rice cultivar “Kanto 239” that would be whitened by an agar medium containing 0.1 μM BBC, if a transformant produced by introducing the gene into Kanto 239 can grow without being whitened in the presence of BBC at the above concentration, the protein encoded by the gene can be determined to have an activity of providing a plant with resistance to a 4-HPPD inhibitor. […]
# [4] = system: rice recombinants (Kanto 239) having the target gene (AK065581) introduced therein; experiment: BBC resistance assay on rice recombinants (T0, HIS1) in composted soil; assay type: in vivo; settings: HIS1 recombinants T0 generation, composted soil treated with BBC at 300 ga.i./ha
# Method: (§1) For transformation of rice, a BBC susceptible rice cultivar Kanto 239 was used, and the method described in “Taniguchi et al., Plant Cell Rep., 2010, vol. 29, iss. 11, pp. 1287 to 1295” was performed with some modification. Specifically, first, sterilized mature seeds were sown on an N6D medium. After culturing at 30° C. for 7 days, the seeds were infected with Agrobacterium, and co-cultured in an acetosyringone (AS)-containing N6 medium (2N6-AS medium) under a dark condition at 25° C. for 3 days. Thereafter, the infected tissues were cultured in a carbenicillin-containing N6D medium for 4 to 6 weeks (18 hours day length) in the presence of 40 mg/L hygromycin (Hyg), and Hyg-tolerant calli were re-differentiated.
# Further, recombinants (TO generation) were prepared by introducing the target gene into the BBC susceptible rice cultivar “Kanto 239” that would be whitened by an agar medium containing 0.1 μM BBC, and the growth state of the recombinants was examined in composted soil treated with BBC at 300 ga.i./ha.
# [5] = system: rice recombinants (Kanto 239) having the target gene (AK065581) introduced therein; experiment: Triketone type 4-HPPD inhibitor resistance assay on rice recombinants (T1/T2 seeds, HIS1) on agar medium; assay type: in vivo
# Method: as §1
# Rice recombinants (T1 and T2 generations) were produced and subjected to a resistance assay with triketone type 4-HPPD inhibitors, that is, mesotrione, tefuryltrione, tembotrione, and NTBC, using commercially-available reagents at concentrations to be described later.
# Furthermore, recombinants were prepared by introducing the target gene into the BBC susceptible rice cultivar “Kanto 239” that would be whitened by an agar medium containing 0.1 μM BBC, and T1 seeds or T2 seeds were obtained. These were seeded on an agar medium containing 2 μM BBC, and the growth state of the recombinants was examined. […] Moreover, the seeds were seeded on an agar medium containing 1 μM mesotrione, 2.5 μM tefuryltrione, 0.5 μM tembotrione, or 1 μM NTBC, and the growth state of the recombinants was examined. FIGS. 12 to 15 show the obtained results.
# [6] = system: BBC resistant cultivar Nipponbare; experiment: BBC whitening of resistant rice cultivar on agar medium; assay type: in vivo
# [7] = system: rice recombinants (Kanto 239) having the homologous gene (HSL1; AK241948) introduced therein; experiment: BBC resistance assay on rice recombinants having the HSL1 gene (AK241948) on agar medium; assay type: in vivo; settings: agar medium containing 0.12 μM BBC
# Method: as §1
# Specifically, recombinants were prepared by introducing the target gene into the BBC susceptible rice cultivar “Kanto 239” that would be whitened by an agar medium containing 0.1 μM BBC, and T1 seeds or T2 seeds were obtained. These were seeded on an agar medium containing 0.12 μM BBC, and the growth state of the recombinants was examined.
# [8] = system: tomato cultivar Micro-Tom; experiment: Germination of tomato seeds on BBC agar medium; assay type: in vivo; settings: Micro-Tom seeds germinated on agar medium containing 0.3 μM BBC, 25° C., approximately 2 weeks
# Method: For transformation of tomatoes, a cultivar “Micro-Tom” was tested, and an Agrobacterium method was performed using vectors (35SHIS1pZK3, 35SHSL1pZK3) shown in FIGS. 5 and 7. Note that when seeds of the original cultivar Micro-Tom were germinated on an agar medium containing 0.3 μM benzobicyclon (BBC) using an incubator at 25° C., it was clearly observed approximately 2 weeks later that leaf parts thereof were whitened.
# [9] = system: Tos17-inserted lines of Nipponbare; experiment: Linkage analysis of BBC susceptibility in Tos17-inserted lines; assay type: in vivo, rice; settings: all progenies of six Tos17-inserted homozygous individuals
# Source text: A retrotransposon Tos17 discovered in rice is activated by tissue culture, and its copies are transposed into a genome. It is known that when the transposition site is inside a gene, the gene is to be disrupted, causing a mutation (see Hirochika et al., Proc. Natl. Acad. Sci. USA, 1996, vol. 93, pp. 7783 to 7788). The present Examples utilized a rice population having accumulated mutations caused by tissue culture utilizing the phenomenon (mutant panel, database name: Tos17 mutant panel database (http://tos.nias.affrc.go.jp/ to miyao/pub/tos17/)). From the Tos17 mutant panel database, two lines were selected, in each of which Tos17 was inserted in a transcription site of a hypothetical gene of an iron/ascorbate oxidoreductase gene, which was strongly suspected of being associated with BBC susceptibility located at a gene locus specified by the QTL analysis. Then, self-fertilized seeds obtained by planting 15 individuals of each of these two lines were used to examine phenotype (BBC susceptibility) and genotype (Tos17 insertion).
# Although the original cultivar “Nipponbare” of the Tos17-inserted lines is a BBC resistant cultivar, BBC susceptible individuals are derived from the lines having Tos17 inserted in the transcription site of the target gene. […]
# KHSL04 = experiment: BBC susceptibility of Koshihikari/Habataki chromosome segment substitution lines (QTL analysis); assay type: in vivo, rice; settings: KHSL04, short arm region of chromosome 2 substituted with Habataki type
# Method: A Koshihikari/Habataki chromosome segment substitution line and Tachisugata//Tachisugata/Momiroman BC1F4 were tested. Specifically, Koshihikari/Habataki chromosome segment substitution lines (KHSL) were analyzed, in which a portion of chromosome fragments of a resistant cultivar Koshihikari serving as the genetic background was substituted with a chromosome of an indica type susceptible cultivar Habataki. Note that KHSL consists of 32 lines, and enables analysis on all of the whole 12 chromosomes of Habataki (as to KHSL, see Kazumasa Murata et al., “Development and evaluation of CSSLs carrying overlapping chromosome segments of rice cultivar Habataki in a genetic background of cultivar Koshihikari, ” Breeding Research, Mar. 27, 2009, vol. 11, supplement issue 1, p. 66). In addition, 94 BC1F4 lines obtained by one-time backcrossing of a resistant cultivar Tachisugata to a susceptible cultivar Momiroman were analyzed using 80 SSR markers (as to the SSR markers used, see “Development and mapping of 2240 new SSR markers for rice (Oryza sativa L.)”, DNA Res, 2002, vol. 9, iss. 6, pp. 199 to 207, and http://www.gramene.org/).
# Accordingly, the QTL analysis was performed as described above on the Koshihikari/Habataki chromosome segment substitution lines (KHSL) using the BBC resistant rice cultivar “Koshihikari” and the susceptible rice cultivar “Habataki”.
# [10] = system: Momiroman, Takanari, Kasalath; experiment: BBC susceptibility level of susceptible rice cultivars; assay type: in vivo; settings: Momiroman and Takanari in comparison with Kasalath
smiles,measurement,setting,value
"CS(=O)(=O)c1ccc(C(=O)C2=C(Sc3ccccc3)C3CCC(C3)C2=O)c(Cl)c1 (stereo not shown) [BBC, benzobicyclon]",whitening of the plant,[1],whitened
same,growth state of the recombinants,[2],grew without being whitened
same,whitening of the plant,[3],whitened
same,growth state of the recombinants,[4],grew without being whitened
same,growth state of the recombinants,[5]; agar medium treated with 2 μM BBC,grew without being whitened
same,whitening of the plant,[6]; 0.12 μM BBC,not whitened
same,whitening of the plant,[6]; agar medium 2 μM BBC,sufficient to whiten
same,growth state of the recombinants,[7],grew without being whitened
same,whitening of leaf parts,[8],whitened
same,phenotype (BBC susceptibility),[9],showed BBC susceptibility
same,BBC susceptibility,KHSL04,showed susceptibility
same,degree of BBC susceptibility,[10],high BBC susceptibility
"O=C1CCCC(=O)C1C(=O)c1ccc(C(F)(F)F)cc1[N+](=O)[O-] [NTBC, 2-(2-nitro-4-trifluoromethylbenzoyl)cyclohexane-1,3-dione]",growth state of the recombinants,[5]; agar medium treated with 1 μM NTBC,grew without being whitened
CS(=O)(=O)c1ccc(C(=O)C2C(=O)CCCC2=O)c([N+](=O)[O-])c1 [mesotrione],growth state of the recombinants,[5]; agar medium treated with 1 μM mesotrione,grew without being whitened
CS(=O)(=O)c1ccc(C(=O)C2C(=O)CCCC2=O)c(Cl)c1COCC1CCCO1 (stereo not shown) [tefuryltrione],growth state of the recombinants,[5]; agar medium treated with 2.5 μM tefuryltrione,grew without being whitened
CS(=O)(=O)c1ccc(C(=O)C2C(=O)CCCC2=O)c(Cl)c1COCC(F)(F)F [tembotrione],growth state of the recombinants,[5]; agar medium treated with 0.5 μM tembotrione,grew without being whitened
